The results in this text go back to ChEMBL document CHEMBL1130110 (J Med Chem, 1997).

Assay [1] addresses T1, Glucagon receptor (Rattus norvegicus, UniProt P30082). Briefly: Binding affinity towards Glucagon receptor in rat liver plasma membranes by displacement of 125 I-labelled glucagon. In kind it is cell membranes.
The target of assay [2] is T1, Glucagon receptor. Briefly: pA2 value against Glucagon Receptor. Conditions: read-out: pA2 (converted).
For assay [3], the target named is Glucagon receptor (Rattus norvegicus) (UniProt P30082). In words: Percent stimulation of cAMP production over basal. Type of assay: functional. Details: concentration or dose not given beside the values.
Chain of Glucagon receptor (Rattus norvegicus) (P30082 whole entry): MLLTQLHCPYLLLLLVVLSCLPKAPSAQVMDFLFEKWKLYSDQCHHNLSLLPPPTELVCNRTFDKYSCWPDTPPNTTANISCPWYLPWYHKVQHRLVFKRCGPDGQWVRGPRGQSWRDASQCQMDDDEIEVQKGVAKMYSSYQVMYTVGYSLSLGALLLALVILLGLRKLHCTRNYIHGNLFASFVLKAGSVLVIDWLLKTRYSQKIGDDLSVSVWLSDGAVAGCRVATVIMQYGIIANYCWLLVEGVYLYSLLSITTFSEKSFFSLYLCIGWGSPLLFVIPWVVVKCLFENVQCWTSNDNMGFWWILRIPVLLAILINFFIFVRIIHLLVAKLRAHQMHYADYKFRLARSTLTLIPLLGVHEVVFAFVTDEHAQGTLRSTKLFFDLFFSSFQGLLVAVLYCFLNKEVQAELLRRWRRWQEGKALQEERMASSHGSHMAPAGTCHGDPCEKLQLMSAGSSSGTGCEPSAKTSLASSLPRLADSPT
The target is the same in assay [4]. In words: Relative binding potency expressed as receptor binding IC50 for glucagon by receptor binding IC50 for compound.

pIC50: −log10 of the molar value.

T1 sequence (P30082 whole entry): as above

With `CSCC[C@H](NC(=O)[C@H](CC(C)C)NC(=O)[C@H](Cc1c[nH]c2ccccc12)NC(=O)[C@H](CCC(N)=O)NC(=O)[C@@H](NC(=O)[C@H](Cc1ccccc1)NC(=O)[C@H](CC(=O)O)NC(=O)[C@H](CCC(N)=O)NC(=O)[C@H](C)NC(=O)[C@H](CCCNC(=N)N)NC(=O)[C@H](CCCNC(=N)N)NC(=O)[C@H](CO)NC(=O)[C@H](CC(=O)O)NC(=O)[C@H](CC(C)C)NC(=O)[C@H](Cc1ccc(O)cc1)NC(=O)[C@H](CCCCN)NC(=O)[C@H](CO)NC(=O)[C@H](Cc1ccc(O)cc1)NC(=O)[C@H](CCC(=O)O)NC(=O)[C@H](CO)NC(=O)[C@@H](NC(=O)[C@@H](NC(=O)CNC(=O)[C@H](CCC(N)=O)NC(=O)[C@@H](N)CO)[C@@H](C)O)[C@@H](C)O)C(C)C)C(=O)N[C@@H](CC(N)=O)C(=O)N[C@H](C(=O)O)[C@@H](C)O` (stereo in doubt; 12), the negative-log IC50 (pIC50) in assay [1] is 6.00. The Kb in assay [2] is 794 nM.
In turn, `CCCC[C@H](NC(=O)[C@@H](NC(=O)CNC(=O)[C@H](CCC(N)=O)NC(=O)[C@@H](N)CO)[C@@H](C)O)C(=O)N[C@H](C(=O)N[C@@H](CO)C(=O)N[C@@H](CCC(=O)O)C(=O)N[C@@H](Cc1ccc(O)cc1)C(=O)N[C@@H](CO)C(=O)N[C@@H](CCCCN)C(=O)N[C@@H](Cc1ccc(O)cc1)C(=O)N[C@@H](CC(C)C)C(=O)N[C@@H](CC(=O)O)C(=O)N[C@@H](CO)C(=O)N[C@@H](CCCN=C(N)N)C(=O)N[C@@H](CCCN=C(N)N)C(=O)N[C@@H](C)C(=O)N[C@@H](CCC(N)=O)C(=O)N[C@@H](CC(=O)O)C(=O)N[C@@H](Cc1ccccc1)C(=O)N[C@H](C(=O)N[C@@H](CCC(N)=O)C(=O)N[C@@H](Cc1c[nH]c2ccccc12)C(=O)N[C@@H](CC(C)C)C(=O)N[C@@H](CCSC)C(=O)N[C@@H](CC(N)=O)C(=O)N[C@H](C(N)=O)[C@@H](C)O)C(C)C)[C@@H](C)O` gave a pIC50 in assay [1] of 7.32.
For the molecule `CSCC[C@H](NC(=O)[C@H](CC(C)C)NC(=O)[C@H](Cc1c[nH]c2ccccc12)NC(=O)[C@H](CCC(N)=O)NC(=O)[C@@H](NC(=O)[C@H](Cc1ccccc1)NC(=O)[C@H](CC(=O)O)NC(=O)[C@H](CCC(N)=O)NC(=O)[C@H](C)NC(=O)[C@H](CCCNC(=N)N)NC(=O)[C@H](CCCNC(=N)N)NC(=O)[C@H](CO)NC(=O)[C@H](CC(=O)O)NC(=O)[C@H](CC(C)C)NC(=O)[C@H](Cc1ccc(O)cc1)NC(=O)[C@H](CCCCN)NC(=O)[C@H](CO)NC(=O)[C@H](Cc1ccc(O)cc1)NC(=O)[C@H](CCC(=O)O)NC(=O)[C@H](CO)NC(=O)[C@@H](NC(=O)[C@H](CC(=O)O)NC(=O)[C@@H](NC(=O)CNC(=O)[C@H](CCC(N)=O)NC(=O)[C@@H](N)CO)[C@@H](C)O)[C@@H](C)O)C(C)C)C(=O)N[C@@H](CC(N)=O)C(=O)N[C@H](C(N)=O)[C@@H](C)O`, the pIC50 in assay [1] is 5.70. The Kb in assay [2] is 501 nM.
Molecule `CSCC[C@H](NC(=O)[C@H](CC(C)C)NC(=O)[C@H](Cc1c[nH]c2ccccc12)NC(=O)[C@H](CCC(N)=O)NC(=O)[C@@H](NC(=O)[C@H](Cc1ccccc1)NC(=O)[C@H](CC(=O)O)NC(=O)[C@H](CCC(N)=O)NC(=O)[C@H](C)NC(=O)[C@H](CCCN=C(N)N)NC(=O)[C@H](CCCN=C(N)N)NC(=O)[C@H](CO)NC(=O)[C@H](CC(=O)O)NC(=O)[C@H](CC(C)C)NC(=O)[C@H](Cc1ccc(O)cc1)NC(=O)[C@H](CCCCN)NC(=O)[C@H](CO)NC(=O)[C@H](Cc1ccc(O)cc1)NC(=O)[C@H](CCC(=O)O)NC(=O)[C@H](CO)NC(=O)[C@@H](NC(=O)[C@@H](Cc1ccccc1)NC(=O)[C@@H](NC(=O)CNC(=O)[C@H](CCC(N)=O)NC(=O)[C@@H](N)CO)[C@@H](C)O)[C@@H](C)O)C(C)C)C(=O)N[C@@H](CC(N)=O)C(=O)N[C@H](C(N)=O)[C@@H](C)O` had a pIC50 in assay [1] of 7.00. For the same molecule, the Kb in assay [2] is 501 nM.
In assay [1], `CSCC[C@H](NC(=O)[C@H](CC(C)C)NC(=O)[C@H](Cc1c[nH]c2ccccc12)NC(=O)[C@H](CCC(N)=O)NC(=O)[C@@H](NC(=O)[C@H](Cc1ccccc1)NC(=O)[C@H](CC(=O)O)NC(=O)[C@H](CCC(N)=O)NC(=O)[C@H](C)NC(=O)[C@H](CCCNC(=N)N)NC(=O)[C@H](CCCNC(=N)N)NC(=O)[C@H](CO)NC(=O)[C@H](CC(=O)O)NC(=O)[C@H](CC(C)C)NC(=O)[C@H](Cc1ccc(O)cc1)NC(=O)[C@H](CCCCN)NC(=O)[C@H](CO)NC(=O)[C@H](Cc1ccc(O)cc1)NC(=O)[C@H](CCC(=O)O)NC(=O)[C@H](CO)NC(=O)[C@@H](NC(=O)[C@@H](NC(=O)CNC(=O)[C@H](CCC(N)=O)NC(=O)[C@@H](N)CO)[C@@H](C)O)[C@@H](C)O)C(C)C)C(=O)N[C@@H](CC(N)=O)C(=O)N[C@H](C(=O)O)[C@@H](C)O` (stereo in doubt; 13) showed a pIC50 of 5.70. The Kb in assay [2] is 631 nM.
Consider H-HSQGTTSDYSKYLDSRRAQDFVQWLMNT-OH, for which the pIC50 in assay [1] is 6.30. Further, the Kb in assay [2] was 562 nM.
Molecule `CSCC[C@H](NC(=O)[C@H](CC(C)C)NC(=O)[C@H](Cc1c[nH]c2ccccc12)NC(=O)[C@H](CCC(N)=O)NC(=O)[C@@H](NC(=O)[C@H](Cc1ccccc1)NC(=O)[C@H](CC(=O)O)NC(=O)[C@H](CCC(N)=O)NC(=O)[C@H](C)NC(=O)[C@H](CCCNC(=N)N)NC(=O)[C@H](CCCNC(=N)N)NC(=O)[C@H](CO)NC(=O)[C@H](CC(=O)O)NC(=O)[C@H](CC(C)C)NC(=O)[C@H](Cc1ccc(O)cc1)NC(=O)[C@H](CCCCN)NC(=O)[C@H](CO)NC(=O)[C@H](Cc1ccc(O)cc1)NC(=O)[C@H](CC(=O)O)NC(=O)[C@H](CO)NC(=O)[C@@H](NC(=O)[C@@H](NC(=O)CNC(=O)[C@H](CCC(N)=O)NC(=O)[C@@H](N)CO)[C@@H](C)O)[C@@H](C)O)C(C)C)C(=O)N[C@@H](CC(N)=O)C(=O)N[C@H](C(=O)O)[C@@H](C)O` showed a pIC50 in assay [1] of 6.70. Besides, the Kb in assay [2] is 708 nM.
For `CSCC[C@@H](NC(=O)[C@@H](CC(C)C)NC(=O)[C@@H](Cc1c[nH]c2ccccc12)NC(=O)[C@@H](CCC(N)=O)NC(=O)[C@H](NC(=O)[C@@H](Cc1ccccc1)NC(=O)[C@@H](CC(=O)O)NC(=O)[C@@H](CCC(N)=O)NC(=O)[C@@H](C)NC(=O)[C@@H](CCCN=C(N)N)NC(=O)[C@@H](CCCN=C(N)N)NC(=O)[C@@H](CO)NC(=O)[C@@H](CC(=O)O)NC(=O)[C@@H](CC(C)C)NC(=O)[C@@H](Cc1ccc(O)cc1)NC(=O)[C@@H](CCCCN)NC(=O)[C@@H](CO)NC(=O)[C@@H](Cc1ccc(O)cc1)NC(=O)[C@@H](CCC(=O)O)NC(=O)[C@@H](CO)NC(=O)[C@H](NC(=O)[C@@H](Cc1c[nH]c2ccccc12)NC(=O)[C@H](NC(=O)CNC(=O)[C@@H](CCC(N)=O)NC(=O)[C@H](N)CO)[C@H](C)O)[C@H](C)O)C(C)C)C(=O)N[C@H](CC(N)=O)C(=O)N[C@@H](C(N)=O)[C@H](C)O`, the results for the Activity in assay [3] and in assay [4] were 0% and 7.9%, respectively.
`CSCC[C@@H](NC(=O)[C@@H](CC(C)C)NC(=O)[C@@H](Cc1c[nH]c2ccccc12)NC(=O)[C@@H](CCC(N)=O)NC(=O)[C@H](NC(=O)[C@@H](Cc1ccccc1)NC(=O)[C@@H](CC(=O)O)NC(=O)[C@@H](CCC(N)=O)NC(=O)[C@@H](C)NC(=O)[C@@H](CCCN=C(N)N)NC(=O)[C@@H](CCCN=C(N)N)NC(=O)[C@@H](CO)NC(=O)[C@@H](CC(=O)O)NC(=O)[C@@H](CC(C)C)NC(=O)[C@@H](Cc1ccc(O)cc1)NC(=O)[C@@H](CCCCN)NC(=O)[C@@H](CO)NC(=O)[C@@H](Cc1ccc(O)cc1)NC(=O)[C@@H](CC(=O)O)NC(=O)[C@@H](CO)NC(=O)[C@H](NC(=O)[C@H](NC(=O)CNC(=O)[C@@H](CCC(N)=O)NC(=O)[C@@H](CO)NC(=O)[C@H](N)Cc1c[nH]cn1)[C@H](C)O)[C@H](C)O)C(C)C)C(=O)N[C@H](CC(N)=O)C(=O)N[C@@H](C(N)=O)[C@H](C)O`: the Activity was determined as 0% in assay [3] and 0.3% in assay [4].
As to `CSCC[C@@H](NC(=O)[C@@H](CC(C)C)NC(=O)[C@@H](Cc1c[nH]c2ccccc12)NC(=O)[C@@H](CCC(N)=O)NC(=O)[C@H](NC(=O)[C@@H](Cc1ccccc1)NC(=O)[C@@H](CC(=O)O)NC(=O)[C@@H](CCC(N)=O)NC(=O)[C@@H](C)NC(=O)[C@@H](CCCN=C(N)N)NC(=O)[C@@H](CCCN=C(N)N)NC(=O)[C@@H](CO)NC(=O)[C@@H](CC(=O)O)NC(=O)[C@@H](CC(C)C)NC(=O)[C@@H](Cc1ccc(O)cc1)NC(=O)[C@@H](CCCCN)NC(=O)[C@@H](CO)NC(=O)[C@@H](Cc1ccc(O)cc1)NC(=O)[C@@H](CCC(=O)O)NC(=O)[C@@H](CO)NC(=O)[C@H](NC(=O)[C@H](Cc1ccccc1)NC(=O)[C@H](NC(=O)CNC(=O)[C@@H](CCC(N)=O)NC(=O)[C@H](N)CO)[C@H](C)O)[C@H](C)O)C(C)C)C(=O)N[C@H](CC(N)=O)C(=O)N[C@@H](C(N)=O)[C@H](C)O`, the Activity in assay [3] was 0%; in assay [4], 1.5%.
In the case of `CC(C)C[C@@H](NC(=O)[C@@H](Cc1ccc(O)cc1)NC(=O)[C@@H](CCCCN)NC(=O)[C@@H](CO)NC(=O)[C@@H](Cc1ccc(O)cc1)NC(=O)[C@@H](CC(=O)O)NC(=O)[C@@H](CO)NC(=O)[C@H](NC(=O)[C@H](NC(=O)CNC(=O)[C@@H](CCC(N)=O)NC(=O)[C@@H](CO)NC(=O)[C@H](N)Cc1c[nH]cn1)[C@H](C)O)[C@H](C)O)C(=O)N[C@H](CC(=O)O)C(=O)N[C@H](CO)C(=O)N[C@H](CCCN=C(N)N)C(=O)N[C@H](CCCN=C(N)N)C(=O)N[C@H](C)C(=O)N[C@H](CCC(N)=O)C(=O)N[C@H](CC(=O)O)C(=O)N[C@H](Cc1ccccc1)C(=O)N[C@@H](C(=O)N[C@H](CCC(N)=O)C(=O)N[C@H](Cc1c[nH]c2ccccc12)C(=O)N[C@H](CC(C)C)C(=O)N[C@H](CCS)C(=O)N[C@H](CC(N)=O)C(=O)N[C@@H](C=O)[C@H](C)O)C(C)C`, the Activity in assay [3] is 0%; in assay [4], 0.3%.
